{"source": "patent US7074447B2", "about": "(Laboratories Miret, S.A., priority 2001, dated 2006)", "assay_type_in_all_cases": "cell-based", "key": {"[1]": {"tested_on": "Bacillus subtilis (CECT 356)", "test": "minimum inhibition concentration and Kull synergy index of LAE / potassium sorbate", "details": "for SI, synergy index: <1 synergism, 1 addition, >1 antagonism", "description": "The invention is now explained by a number of examples. In these examples LAE and sorbate alone and in a number of different combinations have been investigated against a number of bacterial preparations. For the analysis usually an internal method was used. Conditions and medium were Mueller Hinton broth (pH 7.4) or (pH 5.0) for bacteria, Sabouraud broth (pH 5.8) for yeast and Sabouraud medium for moulds. […] The interaction of the two components of the antimicrobial mixture is calculated according to the method described by Kull et al. (Kull […]. and Mayer R. L., Applied Microbiology, 1961; 6:538-541). According to this method the so-called synergy index is calculated according to the following formula: Synergy index […]. […] All indicated symbols indicate a particular concentration leading to a particular end point, in this case the inhibition of growth of Bacillus subtilis, so that the selected end point is in fact the minimal inhibitory concentration (mic)."}, "[2]": {"tested_on": "Citrobacter intermedium (CECT 401)", "test": "minimum inhibition concentration and Kull synergy index of LAE / potassium sorbate", "details": "for SI, synergy index: <1 synergism, 1 addition, >1 antagonism", "description": "(§1) The invention is now explained by a number of examples. In these examples LAE and sorbate alone and in a number of different combinations have been investigated against a number of bacterial preparations. For the analysis usually an internal method was used. Conditions and medium were Mueller Hinton broth (pH 7.4) or (pH 5.0) for bacteria, Sabouraud broth (pH 5.8) for yeast and Sabouraud medium for moulds. The interaction of the two components of the antimicrobial mixture is calculated according to the method described by Kull et al. (Kull […]. and Mayer R. L., Applied Microbiology, 1961; 6:538-541). According to this method the so-called synergy index is calculated according to the following formula: Synergy index […]. […] The same method was used as described for example 1. […] Again the effects of the components alone and in combination have been calculated using the same method as described at Example 1."}, "[3]": {"tested_on": "Penicillium camemberti (CECT 2267)", "test": "minimum inhibition concentration and Kull synergy index of LAE / potassium sorbate", "details": "for SI, synergy index: <1 synergism, 1 addition, >1 antagonism", "description": "as §1"}, "[4]": {"tested_on": "Cladosporium cladosporioides (ATCC 16022)", "test": "minimum inhibition concentration and Kull synergy index of LAE / potassium sorbate", "details": "for SI, synergy index: <1 synergism, 1 addition, >1 antagonism", "description": "as §1"}, "[5]": {"tested_on": "Enterobacter aerogenes (ATCC 13048)", "test": "minimum inhibition concentration and Kull synergy index of LAE / potassium sorbate", "details": "for SI, synergy index: <1 synergism, 1 addition, >1 antagonism", "description": "as §1"}, "[6]": {"tested_on": "Escherichia coli (ATCC 8739)", "test": "minimum inhibition concentration and Kull synergy index of LAE / potassium sorbate", "details": "for SI, synergy index: <1 synergism, 1 addition, >1 antagonism", "description": "as §1"}, "[7]": {"tested_on": "Gram-Positive Bacteria, Gram-Negative Bacteria, Moulds and Yeasts", "test": "activity of LAE against listed microorganisms", "details": "strains listed in b7", "from_the_text": "• Arthrobacter oxydans ATCC 8010 • Bacillus cereus var mycoide ATCC 11778 • Bacillus subtilis ATCC 6633 • Bacillus megaterium CECT 44 • Clostridium perfringens ATCC 77454 • Clostridium perfringens CECT 486 • Listeria monocytogenes ATCC 7644 • Staphylococcus aureus ATCC 6538 • Micrococcus luteus ATCC 9631 • Lactobacillus delbrueckii ssp lactis CECT 372 Gram-Negative Bacteria • Alcaligenes faecalis ATCC 8750 • Bordetella bronchiseptica ATCC 4617 • Citrobacter freundii ATCC 22636 • Citrobacter intermedium CECT 401 • Enterobacter aerogenes CECT 689 • Escherichia coli ATCC 8739 • Escherichia coli 0157H7 • Klebsiella pneumoniae var pneumoniae CECT 178 • Proteus mirabilis CECT 170 • Pseudomonas aeruginosa ATCC 9027 • Salmonella typhimurium ATCC16028 • Serratia marcenses CECT 274 • Mycobacterium phlei ATCC 41423 Moulds and Yeasts • Aspergillus niger ATCC14604 • Aureobasidium pullulans ATCC 9348 • Cladosporium cladosporioides ATCC 16022 • Gliocadium virens ATCC 4645 • Chaetonium globosum ATCC 6205 • Penicillium chrysogenum CECT 2802 • Penicillium funiculosum CECT 2914 • Penicillium camemberti CECT 2267 • Candida albicans ATCC 10231 • Rhodotorula rubra CECT 1158 • Saccharomyces cerevisiae ATCC 9763"}, "[8]": {"details": "pH 7.4, propylene glycol solutions"}}, "data": [{"compound": "CCCCCCCCCCCC(=O)N[C@@H](CCCNC(=N)N)C(=O)OCC.Cl", "note": "[LAE, L-arginine, N^α-lauroyl-ethylester monohydrochloride]", "values": [{"measurement": "QLAE, minimum inhibition concentration of LAE as single antimicrobial", "setting": "[1]; pH 5.0", "result": 29.3}, {"measurement": "Qlae, minimum inhibition concentration of LAE in the mixture", "setting": "[1]; pH 5.0", "result": 29.3}, {"measurement": "Qlae/QLAE", "setting": "[1]; pH 5.0", "result": 1.00}, {"measurement": "Qs, minimum inhibition concentration of potassium sorbate in the mixture", "setting": "[1]; pH 5.0", "result": 0}, {"measurement": "Qs/QS", "setting": "[1]; pH 5.0", "result": 0.00}, {"measurement": "SI, synergy index", "setting": "[1]; pH 5.0", "result": 1.00}, {"measurement": "QLAE, minimum inhibition concentration of LAE as single antimicrobial", "setting": "[1]; [8]", "result": 12.8}, {"measurement": "Qlae, minimum inhibition concentration of LAE in the mixture", "setting": "[1]; [8]", "result": 12.8}, {"measurement": "Qlae/QLAE", "setting": "[1]; [8]", "result": 1.00}, {"measurement": "Qs, minimum inhibition concentration of potassium sorbate in the mixture", "setting": "[1]; [8]", "result": 0}, {"measurement": "Qs/QS", "setting": "[1]; [8]", "result": 0.00}, {"measurement": "SI, synergy index", "setting": "[1]; [8]", "result": 1.00}, {"measurement": "QLAE, minimum inhibition concentration of LAE as single antimicrobial", "setting": "[2]; pH 5.0", "result": 12.8}, {"measurement": "Qlae, minimum inhibition concentration of LAE in the mixture", "setting": "[2]; pH 5.0", "result": 12.8}, {"measurement": "Qlae/QLAE", "setting": "[2]; pH 5.0", "result": 1.00}, {"measurement": "Qs, minimum inhibition concentration of potassium sorbate in the mixture", "setting": "[2]; pH 5.0", "result": 0}, {"measurement": "Qs/QS", "setting": "[2]; pH 5.0", "result": 0.00}, {"measurement": "SI, synergy index", "setting": "[2]; pH 5.0", "result": 1.00}, {"measurement": "QLAE, minimum inhibition concentration of LAE as single antimicrobial", "setting": "[2]; pH 7.4, aqueous solutions", "result": 25.6}, {"measurement": "Qlae, minimum inhibition concentration of LAE in the mixture", "setting": "[2]; pH 7.4, aqueous solutions", "result": 25.6}, {"measurement": "Qlae/QLAE", "setting": "[2]; pH 7.4, aqueous solutions", "result": 1.00}, {"measurement": "Qs, minimum inhibition concentration of potassium sorbate in the mixture", "setting": "[2]; pH 7.4, aqueous solutions", "result": 0}, {"measurement": "Qs/QS", "setting": "[2]; pH 7.4, aqueous solutions", "result": 0.00}, {"measurement": "SI, synergy index", "setting": "[2]; pH 7.4, aqueous solutions", "result": 1.00}, {"measurement": "QLAE, minimum inhibition concentration of LAE as single antimicrobial", "setting": "[3]; pH 5.0", "result": 58.5}, {"measurement": "Qlae, minimum inhibition concentration of LAE in the mixture", "setting": "[3]; pH 5.0", "result": 58.5}, {"measurement": "Qlae/QLAE", "setting": "[3]; pH 5.0", "result": 1.00}, {"measurement": "Qs, minimum inhibition concentration of potassium sorbate in the mixture", "setting": "[3]; pH 5.0", "result": 0}, {"measurement": "Qs/QS", "setting": "[3]; pH 5.0", "result": 0.00}, {"measurement": "SI, synergy index", "setting": "[3]; pH 5.0", "result": 1.00}, {"measurement": "QLAE, minimum inhibition concentration of LAE as single antimicrobial", "setting": "[3]; pH 7.4, aqueous solutions", "result": 68.2}, {"measurement": "Qlae, minimum inhibition concentration of LAE in the mixture", "setting": "[3]; pH 7.4, aqueous solutions", "result": 68.2}, {"measurement": "Qlae/QLAE", "setting": "[3]; pH 7.4, aqueous solutions", "result": 1.00}, {"measurement": "Qs, minimum inhibition concentration of potassium sorbate in the mixture", "setting": "[3]; pH 7.4, aqueous solutions", "result": 0}, {"measurement": "Qs/QS", "setting": "[3]; pH 7.4, aqueous solutions", "result": 0.00}, {"measurement": "SI, synergy index", "setting": "[3]; pH 7.4, aqueous solutions", "result": 1.00}, {"measurement": "QLAE, minimum inhibition concentration of LAE as single antimicrobial", "setting": "[4]; pH 5.0", "result": 58.5}, {"measurement": "Qlae, minimum inhibition concentration of LAE in the mixture", "setting": "[4]; pH 5.0", "result": 58.5}, {"measurement": "Qlae/QLAE", "setting": "[4]; pH 5.0", "result": 1.00}, {"measurement": "Qs, minimum inhibition concentration of potassium sorbate in the mixture", "setting": "[4]; pH 5.0", "result": 0}, {"measurement": "Qs/QS", "setting": "[4]; pH 5.0", "result": 0.00}, {"measurement": "SI, synergy index", "setting": "[4]; pH 5.0", "result": 1.00}, {"measurement": "QLAE, minimum inhibition concentration of LAE as single antimicrobial", "setting": "[4]; pH 7.4, aqueous solutions", "result": 25.6}, {"measurement": "Qlae, minimum inhibition concentration of LAE in the mixture", "setting": "[4]; pH 7.4, aqueous solutions", "result": 25.6}, {"measurement": "Qlae/QLAE", "setting": "[4]; pH 7.4, aqueous solutions", "result": 1.00}, {"measurement": "Qs, minimum inhibition concentration of potassium sorbate in the mixture", "setting": "[4]; pH 7.4, aqueous solutions", "result": 0}, {"measurement": "Qs/QS", "setting": "[4]; pH 7.4, aqueous solutions", "result": 0.00}, {"measurement": "SI, synergy index", "setting": "[4]; pH 7.4, aqueous solutions", "result": 1.00}, {"measurement": "QLAE, minimum inhibition concentration of LAE as single antimicrobial", "setting": "[5]; pH 5.0", "result": 21.5}, {"measurement": "Qlae, minimum inhibition concentration of LAE in the mixture", "setting": "[5]; pH 5.0", "result": 21.5}, {"measurement": "Qlae/QLAE", "setting": "[5]; pH 5.0", "result": 1.00}, {"measurement": "Qs, minimum inhibition concentration of potassium sorbate in the mixture", "setting": "[5]; pH 5.0", "result": 0}, {"measurement": "Qs/QS", "setting": "[5]; pH 5.0", "result": 0.00}, {"measurement": "SI, synergy index", "setting": "[5]; pH 5.0", "result": 1.00}, {"measurement": "Qlae, minimum inhibition concentration of LAE in the mixture", "setting": "[5]; pH 7.4, aqueous solutions", "result": 68.2}, {"measurement": "Qs, minimum inhibition concentration of potassium sorbate in the mixture", "setting": "[5]; pH 7.4, aqueous solutions", "result": 0}, {"measurement": "Qs/QS", "setting": "[5]; pH 7.4, aqueous solutions", "result": 0.00}, {"measurement": "SI, synergy index", "setting": "[5]; pH 7.4, aqueous solutions", "result": 1.00}, {"measurement": "QLAE, minimum inhibition concentration of LAE as single antimicrobial", "setting": "[6]; pH 5.0", "result": 21.5}, {"measurement": "Qlae, minimum inhibition concentration of LAE in the mixture", "setting": "[6]; pH 5.0", "result": 21.5}, {"measurement": "Qlae/QLAE", "setting": "[6]; pH 5.0", "result": 1.00}, {"measurement": "Qs, minimum inhibition concentration of potassium sorbate in the mixture", "setting": "[6]; pH 5.0", "result": 0}, {"measurement": "Qs/QS", "setting": "[6]; pH 5.0", "result": 0.00}, {"measurement": "SI, synergy index", "setting": "[6]; pH 5.0", "result": 1.00}, {"measurement": "QLAE, minimum inhibition concentration of LAE as single antimicrobial", "setting": "[6]; pH 7.4, aqueous solutions", "result": 25.6}, {"measurement": "Qlae, minimum inhibition concentration of LAE in the mixture", "setting": "[6]; pH 7.4, aqueous solutions", "result": 25.6}, {"measurement": "Qlae/QLAE", "setting": "[6]; pH 7.4, aqueous solutions", "result": 1.00}, {"measurement": "Qs, minimum inhibition concentration of potassium sorbate in the mixture", "setting": "[6]; pH 7.4, aqueous solutions", "result": 0}, {"measurement": "Qs/QS", "setting": "[6]; pH 7.4, aqueous solutions", "result": 0.00}, {"measurement": "SI, synergy index", "setting": "[6]; pH 7.4, aqueous solutions", "result": 1.00}, {"measurement": "activity against the listed microorganisms", "setting": "[7]", "result": "activity"}]}]}
